# From ChEMBL document CHEMBL5537141, “Targeting PIM kinases in cancer therapy: An update on pharmacological small-molecule inhibitors” (Eur J Med Chem, 2024)
# Assay: Metabolic stability in human liver microsomes assessed as half life measured upto 60 mins by LC/MS-MS analysis
# Assay type: ADME, Microsome
row,SMILES,half-life [min]
1,C[C@@H]1C[C@H](N)C[C@H](c2ccncc2NC(=O)c2ccc(F)c(-c3ccccc3F)n2)C1,> 180
2,C[C@@H]1C[C@H](N)CN(c2ccncc2NC(=O)c2ccc(F)c(-c3ccccc3F)n2)C1,13
3,C[C@@H]1C[C@H](N)CN(c2ccncc2NC(=O)c2ccc(F)c(-c3c(F)cccc3F)n2)C1,40
